This passage reports inhibition and IC50 results from PubChem BioAssay AID850 (SRMLSC, 2007).

The nature of assay [1]: concentration-response yeast growth inhibition under permissive conditions, counter-assay for yeast lifespan-shortening chemical project (AID 850).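 Also: growth read as optical density after one day of incubation.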 As to conditions: Saccharomyces cerevisiae growth inhibition, permissive control, measured here: maximum growth inhibition, stronger effect = higher value.
For assay [2], the system named is Saccharomyces cerevisiae growth inhibition, permissive control. Described as above.

Molecules are shown by their SMILES. The source made the active and inactive calls. No rule for the calls is given here.

In the case of `Oc1cccc2ccc(/C=C/c3cccs3)nc12`, in assay [1] (at 50 µM), the inhibition (as a rule, the relative decrease from the control value, in per cent) is 67.1%. In assay [2], the IC50 (usually the point on the concentration scale where inhibition reaches its midpoint) was 37.4 µM.
`O=C(O)C1C2C=CC(O2)C1C(=O)NC1CCCc2ccccc21` (centres undefined): the inhibition in assay [1] (at 6.25 µM) was 10.9%. Further, the IC50 in assay [2] is > 100 µM (inactive).
On to `C=CCn1cnc2c(c1=O)c1nc3ccccc3nc1n2/N=C/c1cc(OC)c(OC)c(OC)c1`, for which the inhibition in assay [1] (at 25 µM) stood at 46.7%. Further, in assay [2], the IC50 was 25.8 µM.
Turning to `O=C1C=C(c2ccccc2)C(=O)N1Nc1ccccc1`, in assay [1] (at 50 µM), the inhibition was 85.8%. Also, in assay [2], the IC50 was 23.6 µM.
As for `O=C1C=C(c2ccc(Cl)cc2)C(=O)N1Nc1ccccc1`, the inhibition in assay [1] (at 50 µM) worked out at 99.4%. In assay [2], the IC50 is 6.75 µM.
As for `CN(c1ccccc1)c1ccc(/C=C/[N+](=O)[O-])cc1`, the inhibition in assay [1] (at 50 µM) stood at 98.4%. Besides, in assay [2], the IC50 was 16.8 µM.
Consider `Oc1c(Cl)cc(Cl)c(Cl)c1Cc1c(O)c(Cl)cc(Cl)c1Cl`, for which the inhibition in assay [1] (at 6.25 µM) amounted to 23.3%. Besides, in assay [2], the IC50 is > 100 µM (inactive).
With `CCN(CC)c1ccc(S(=O)(=O)N2CCOCC2)cc1NC(=O)CSc1cccc[n+]1[O-]`, the inhibition in assay [1] (at 50 µM) was 96.5%. In addition, the IC50 in assay [2] was 25.3 µM.
For `Cc1ccc(C)c(/C=C/C(=O)c2ccccc(=O)c2O)c1`, the inhibition in assay [1] (at 25 µM) was determined as 100%. In addition, the IC50 in assay [2] is 6.38 µM.
Regarding `Oc1c(CN2CCN(c3ccccn3)CC2)cc(Cl)c2cccnc12`, the inhibition in assay [1] (at 50 µM) amounted to 95.9%. Besides, in assay [2], the IC50 was 26.5 µM.
With `Cc1cccc(/C(N)=N/OC(=O)c2ccc(F)cc2)c1`, in assay [1] (at 50 µM), the inhibition stood at 23.4%. Besides, the IC50 in assay [2] is > 100 µM (inactive).
`O=C(CC(=O)c1ccccc1O)c1ccc(F)cc1`: the inhibition in assay [1] (at 25 µM) was 37%. The IC50 in assay [2] was 30.1 µM.
As for `CCS(=O)(=O)n1nc(-c2ccc(Cl)cc2)nc1SCc1ccccc1`, the inhibition in assay [1] (at 50 µM) is 15%. Besides, in assay [2], the IC50 is > 100 µM (inactive).
`Cc1ccc(Oc2nc(CN3CCOCC3)nc3sc4c(c23)CCC(C)C4)cc1C` (centres undefined): the inhibition in assay [1] (at 50 µM) is 93.4%. Moreover, the IC50 in assay [2] was 23.5 µM.
`CC(C)(C)C(=O)O/N=C1/C(=O)N(c2ccccc2)c2ccccc21`: in assay [1] (at 25 µM), the inhibition turned out to be 52.3%. Moreover, in assay [2], the concentration for half-maximal inhibition (IC50) is 42.9 µM.
For `Oc1c(I)cc(I)c2cccnc12`, the inhibition in assay [1] (at 50 µM) came to 74.8%. Moreover, the IC50 in assay [2] was 17.1 µM.
`COC(=O)Cn1c2ccc(C)cc2c2nc(C)sc21`: the inhibition in assay [1] (at 50 µM) came to 16%. In addition, in assay [2], the IC50 is > 100 µM (inactive).
In the case of `CC(=O)Oc1ccc(N2C(=O)C3C(C2=O)C2(C)C=CC3(C)O2)cc1` (centres undefined), the inhibition in assay [1] (at 0.195 µM) is 3.93%. The IC50 in assay [2] is > 100 µM (inactive).
Take `CCOC(=O)c1sc(=S)n(-c2cc(F)ccc2F)c1N`: the inhibition in assay [1] (at 25 µM) was 29.2%. The IC50 in assay [2] is > 100 µM (inactive).
Consider `Oc1ccc(/C=C/c2nc(-c3ccccc3O)n(-c3ccccc3)n2)cc1`, for which the inhibition in assay [1] (at 50 µM) was found to be 54.3%. Further, the IC50 in assay [2] was 47.1 µM.
For `Cc1cccc(/C=C/C(=O)c2cc(Br)ccc(=O)c2O)c1`, in that order: 83.2% and 12.2 µM.
On to `CCSc1nc2ccccc2n1S(=O)(=O)c1ccccc1`, for which the inhibition in assay [1] (at 3.125 µM) was found to be 26.4%. In addition, the IC50 in assay [2] is > 100 µM (inactive).
As to `O=[N+]([O-])c1cccc(/C=N/n2cnnc2)c1O`, the inhibition in assay [1] (at 50 µM) worked out at 76.8%. Besides, the IC50 in assay [2] was 21 µM.
With `COc1ccc(C(=O)N/N=C/c2sc3ccccc3c2O)cc1`, the inhibition in assay [1] (at 0.781 µM) came out at 17%. In addition, in assay [2], the IC50 was > 100 µM (inactive).
With `Cc1ccc(C(NC(=O)C(C)C)c2cc([N+](=O)[O-])c3cccnc3c2O)cc1` (centres undefined), the inhibition in assay [1] (at 50 µM) turned out to be 90.4%. In assay [2], the IC50 is 28.8 µM.
For the compound `O=C1C(=O)c2c(C(=O)c3ccccc3)coc2-c2ccccc21`, the inhibition in assay [1] (at 50 µM) is 99.6%. Besides, the IC50 in assay [2] is 10.3 µM.
Regarding `Cc1cc(C)cc(NS(=O)(=O)c2cnc(Cl)c(Cl)c2)c1`, the inhibition in assay [1] (at 12.5 µM) was determined as 19.5%. Further, in assay [2], the IC50 was > 100 µM (inactive).
As for `C/C(=N\Nc1ccc(Cl)cc1)c1ccccn1`, in assay [1] (at 50 µM), the inhibition amounted to 97.1%. Also, the IC50 in assay [2] is 10.1 µM.
With `CCOC(=O)CNC(=O)CSc1nnc(-c2ccco2)n1Cc1ccco1`, the inhibition in assay [1] (at 0.781 µM) stood at 14.2%. Moreover, the IC50 in assay [2] was > 100 µM (inactive).
`COc1ccc(-c2[nH]ncc2-c2ccc(Cl)cc2)c(O)c1`: in assay [1] (at 0.781 µM), the inhibition was determined as 14.4%. Further, in assay [2], the IC50 was > 100 µM (inactive).
With `O=c1oc2ccccc2cc1-c1cn2cccnc2n1`, the inhibition in assay [1] (at 12.5 µM) was determined as 13.2%. Besides, the IC50 in assay [2] was > 100 µM (inactive).
On to `CC(C)(C)c1ccc(C(=O)NC(=S)NNC(=O)c2cccs2)cc1`, for which the inhibition in assay [1] (at 50 µM) is 53.8%. Moreover, the IC50 in assay [2] is 41.7 µM.
In the same order, the values of `CC(Oc1ccc(Cl)cc1Cl)C(=O)NC1=NN(c2ccccc2)C(=O)C1` (centres undefined) are 98.6% and 16.6 µM.
As to `c1ccc(-c2nc3nonc3nc2-c2ccccc2)cc1`, in assay [1] (at 1.563 µM), the inhibition is -1.92%. Also, in assay [2], the IC50 was > 100 µM (inactive).
Turning to `c1ccc(-c2nnc(-c3ccccn3)nc2NC2CCCCC2)cc1`, in assay [1] (at 50 µM), the inhibition is 99.6%. In addition, the IC50 in assay [2] was 12.6 µM.
With `COc1cc(CNCCN2CCOCC2)ccc1OCc1cccc(Cl)c1`, in assay [1] (at 25 µM), the inhibition was 12.3%. In assay [2], the IC50 was > 100 µM (inactive).
In the case of `O=C(Nc1ccc(Cl)cc1)ON=C1CCCC1`, the inhibition in assay [1] (at 25 µM) amounted to 99.4%. In addition, the IC50 in assay [2] was 7.46 µM.
Regarding `O=S(=O)(Nc1ccc(-n2cccc2)cc1)c1ccc(Cl)cc1Cl`, in assay [1] (at 0.391 µM), the inhibition amounted to 29.9%. In assay [2], the IC50 was > 100 µM (inactive).
Take `Oc1c(CN2CCCCC2)cc(Br)c2cccnc12`: the inhibition in assay [1] (at 50 µM) stood at 99.8%. Further, the IC50 in assay [2] was 7.22 µM.
Consider `Cc1ccc(-n2nnc3c(=O)n(CC(=O)N4CCC(C)CC4)cnc32)cc1`, for which the inhibition in assay [1] (at 25 µM) was found to be 17.4%. Further, in assay [2], the IC50 is > 100 µM (inactive).
In the same order, the values of `c1ccc2c(c1)oc1c(N3CCOCC3)ncnc12` are 19.7% and > 100 µM (inactive).
For the compound `O=C(c1ccc(C(=O)N2CCCc3ccccc32)s1)N1CCCc2ccccc21`, the inhibition in assay [1] (at 50 µM) was 87%. Further, the IC50 in assay [2] is 34.1 µM.
As to `O=Nc1c(O)n(Cc2ccc(Cl)c(Cl)c2)c2ccccc12`, the inhibition in assay [1] (at 50 µM) came to 58.3%. Also, the IC50 in assay [2] is 43.1 µM.
Take `CNC(=O)c1cc2c(ccc3ccccc32)oc1=N`: the inhibition in assay [1] (at 50 µM) turned out to be 74.8%. The IC50 in assay [2] is 23.5 µM.
On to `COC(=O)c1ccc(C(=O)OC)c(NC(=O)CSc2cccc[n+]2[O-])c1`, for which, in assay [1], the inhibition amounted to 100%. In addition, the IC50 in assay [2] is 1.09 µM.
With `CC(C)CN=Cc1c(O)c([N+](=O)[O-])cc2oc3c(c12)CCCC3`, the inhibition in assay [1] (at 50 µM) was 60.1%. The IC50 in assay [2] was 41 µM.
In the same order, the values of `COc1ccc(C(=O)NC(=S)NNC(=O)c2cnccn2)cc1` are 71.2% and 14.2 µM.
As for `NC(=O)c1ccc(N=Cc2ccc([N+](=O)[O-])s2)cc1`, in assay [1] (at 50 µM), the inhibition was determined as 101%. Also, the IC50 in assay [2] was 11 µM.
`Cc1ccc(C(=O)c2c(C)oc3c2C(=O)C(=O)c2ccccc2-3)cc1`: the inhibition in assay [1] (at 50 µM) amounted to 95.5%. Besides, the IC50 in assay [2] was 43.6 µM.
In the case of `O=C(Nc1nnc(C2CC2)s1)c1ccccn1`, the inhibition in assay [1] (at 50 µM) came to 22.8%. For the same compound, the IC50 in assay [2] was > 100 µM (inactive).
Consider `COc1ccc(OC)c(-c2c3cc(O)c(=O)cc-3oc3cc(O)c(O)cc23)c1`, for which the inhibition in assay [1] (at 50 µM) came out at 63.5%. Further, the IC50 in assay [2] is 28.1 µM.
For `Cc1cccnc1Nc1nc(-c2ccccn2)cs1`, in that order: 94.5% and 37.9 µM.
In the case of `O/N=C/c1ccc(OCc2ccccc2)c(Br)c1`, the inhibition in assay [1] (at 0.781 µM) is 11.2%. For the same compound, the IC50 in assay [2] was > 100 µM (inactive).
For the compound `Cn1c(/C=C/c2ccc([N+](=O)[O-])o2)nc2ccccc2c1=O`, the inhibition in assay [1] (at 50 µM) was 47.5%. The IC50 in assay [2] is 51.4 µM.
As for `COc1ccccc1OCCCc1c(C)n[nH]c1C`, in assay [1] (at 50 µM), the inhibition was determined as 100%. The IC50 in assay [2] is 5.76 µM.
As to `Fc1ccc(N/N=C2/CC(c3ccccc3)Oc3ccccc32)c(F)c1` (centres undefined), the inhibition in assay [1] (at 50 µM) amounted to 95.9%. The IC50 in assay [2] was 25.9 µM.
For the compound `CCCCCCc1ccc(-c2ncc(N)cn2)cc1`, in assay [1] (at 50 µM), the inhibition amounted to 99.2%. In addition, the IC50 in assay [2] is 22.9 µM.
For the compound `Nc1ccc(O)c2c1C(=O)c1ccccc1C2=O`, the inhibition in assay [1] (at 25 µM) amounted to 16.4%. Also, in assay [2], the IC50 is > 100 µM (inactive).
As to `CC(=O)NC(c1cccs1)c1cc([N+](=O)[O-])c2cccnc2c1O` (centres undefined), the inhibition in assay [1] (at 50 µM) stood at 17.1%. Also, the IC50 in assay [2] is > 100 µM (inactive).
In the case of `COc1ccc(OCc2nnc3n2N=C(c2ccc(OC)cc2)CS3)cc1`, the inhibition in assay [1] (at 0.781 µM) stood at 20.9%. Moreover, the IC50 in assay [2] is > 100 µM (inactive).
As for `C=CCNC1=C(Cl)C(=O)c2ccccc2C1=O`, in assay [1] (at 25 µM), the inhibition was 18.3%. Further, in assay [2], the IC50 is > 100 µM (inactive).
As for `O=C1C(=O)c2ccccc2-c2ccccc21`, the inhibition in assay [1] (at 50 µM) was determined as 99.2%. The IC50 in assay [2] is 1.01 µM.
`c1cncc(-c2nnc(-c3cccnc3)nn2)c1`: in assay [1] (at 50 µM), the inhibition came out at 90.5%. For the same compound, in assay [2], the IC50 was 26.3 µM.
On to `O=C1Cc2ccccc2C(=O)N1CCc1ccccc1`, for which the inhibition in assay [1] (at 0.781 µM) came to 20.7%. In addition, in assay [2], the IC50 was > 100 µM (inactive).
In the case of `Cc1ccc(NN2C(=O)C=C(c3ccc(Cl)cc3)C2=O)cc1`, in assay [1] (at 50 µM), the inhibition amounted to 98%. In addition, the half-maximal inhibitory concentration (IC50) in assay [2] was 9.53 µM.
Consider `c1ccc2c(c1)C(=Nn1cnnc1)c1ccccc1-2`, for which, in assay [1] (at 0.391 µM), the inhibition was determined as 7.85%. Moreover, in assay [2], the IC50 is > 100 µM (inactive).
Regarding `c1cnc2c(c1)ccc1cccnc12`, the inhibition in assay [1] (at 50 µM) amounted to 100%. For the same compound, in assay [2], the IC50 was 8.23 µM.
